Results: patent publication US20100227859A1, “TRICYCLIC COMPOUNDS AS MATRIX METALLOPROTEINASE INHIBITORS” (priority 2007, published 2010)

molecular target: purified human MMP-12 enzyme (Homo sapiens, UniProt P39900); test: MMP-12 FRET assay; assay type: biochemical; conditions: substrate 20 μM, room temperature
Outline: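 Initial fluorescence rate (325/395 nm) of cleavage of MCA-Pro-Leu-Gly-Leu-Dpa(DNP)-Ala-Arg, 20 μM final, was followed for 30 min at room temperature after a 30 min enzyme–compound preincubation. Buffer: 50 mM HEPES pH 7.4, 100 mM NaCl, 5 mM CaCl2, 0.005% Brij-35, with 10% final DMSO. IC50 came from a Hill-type fit of rate versus inhibitor concentration.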

purified human MMP-12 enzyme, sequence (P39900 106-470): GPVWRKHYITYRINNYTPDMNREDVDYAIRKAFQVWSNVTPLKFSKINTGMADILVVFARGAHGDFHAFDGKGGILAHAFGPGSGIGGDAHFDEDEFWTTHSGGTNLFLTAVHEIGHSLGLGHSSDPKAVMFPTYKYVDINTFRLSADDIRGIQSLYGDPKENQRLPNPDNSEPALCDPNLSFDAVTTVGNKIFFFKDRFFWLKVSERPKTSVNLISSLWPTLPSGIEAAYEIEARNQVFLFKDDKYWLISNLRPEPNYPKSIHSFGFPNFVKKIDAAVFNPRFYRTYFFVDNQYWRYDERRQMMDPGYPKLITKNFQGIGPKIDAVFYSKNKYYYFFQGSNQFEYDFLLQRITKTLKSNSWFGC

SMILES	IC50
CC(C)[C@H](NS(=O)(=O)c1ccc2c(c1)oc1ccc(-c3cnn(Cc4ccccc4)c3)cc12)C(=O)O [Compound 22, (S)-2-(8-(1-benzyl-1H-pyrazol-4-yl)dibenzo[b,d]furan-3-sulfonamido)-3-methylbutanoic acid]	3 nM
CC(C)[C@H](NS(=O)(=O)c1ccc2c(c1)oc1cc(-c3cc4ccccc4o3)ccc12)C(=O)O [Compound 143, (S)-2-(7-(benzofuran-2-yl)dibenzo[b,d]furan-3-sulfonamido)-3-methylbutanoic acid]	1.1 nM
Cc1c(-c2ccc3oc4cc(S(=O)(=O)N[C@H](C(=O)O)C(C)C)ccc4c3c2)cnn1-c1ccccc1 [Compound 162, (S)-3-methyl-2-(8-(5-methyl-1-phenyl-1H-pyrazol-4-yl)dibenzo[b,d]furan-3-sulfonamido)butanoic acid]	< 1.5 nM
CC(C)[C@H](NS(=O)(=O)c1ccc2c(c1)oc1ccc(-c3ccc(C(N)=O)s3)cc12)C(=O)O [Compound 111, (S)-2-(8-(5-carbamoylthiophen-2-yl)dibenzo[b,d]furan-3-sulfonamido)-3-methylbutanoic acid]	< 1.5 nM
CC(C)[C@H](NS(=O)(=O)c1ccc2c(c1)oc1ccc(-c3nc(C(F)(F)F)c(Cl)s3)cc12)C(=O)O [Compound 200, (S)-2-(8-(5-chloro-4-(trifluoromethyl)thiazol-2-yl)dibenzo[b,d]furan-3-sulfonamido)-3-methylbutanoic acid]	< 1.5 nM
CC(C)[C@H](NS(=O)(=O)c1ccc2c(c1)oc1cc(-c3cc4ccccc4s3)ccc12)C(=O)O [Compound 136, (S)-2-(7-(benzo[b]thiophen-2-yl)dibenzo[b,d]furan-3-sulfonamido)-3-methylbutanoic acid]	< 1.5 nM
CCc1ccc(-c2ccc3c(c2)oc2cc(S(=O)(=O)N[C@H](C(=O)O)C(C)C)ccc23)s1 [Compound 229, (S)-2-(7-(5-ethylthiophen-2-yl)dibenzo[b,d]furan-3-sulfonamido)-3-methylbutanoic acid]	< 1.5 nM
CCCn1cc(-c2ccc3oc4cc(S(=O)(=O)N[C@H](C(=O)O)C(C)C)ccc4c3c2)cn1 [Compound 21, (S)-3-methyl-2-(8-(1-propyl-1H-pyrazol-4-yl)dibenzo[b,d]furan-3-sulfonamido)butanoic acid]	< 1.5 nM
CC(C)(C)c1nc(-c2ccc3c(c2)oc2ccc(S(=O)(=O)N[C@H](C(=O)O)c4ccccc4)cc23)no1 [Compound 281, (S)-2-(7-(5-tert-butyl-1,2,4-oxadiazol-3-yl)dibenzo[b,d]furan-2-sulfonamido)-2-phenylacetic acid]	90 nM
CC(C)[C@H](NS(=O)(=O)c1ccc2c(c1)sc1ccc(-c3ccncc3)cc12)C(=O)O [Compound 56, (S)-3-methyl-2-(8-(pyridin-4-yl)dibenzo[b,d]thiophene-3-sulfonamido)butanoic acid]	8.4 nM
Cc1csc(-c2ccc3sc4cc(S(=O)(=O)N[C@H](C(=O)O)C(C)C)ccc4c3c2)c1 [Compound 62, (S)-3-methyl-2-(8-(4-methylthiophen-2-yl)dibenzo[b,d]thiophene-3-sulfonamido)butanoic acid]	44 nM
CC(C)c1nc(-c2ccc3c(c2)oc2ccc(S(=O)(=O)N[C@@H](C(=O)O)C(C)C)cc23)no1 [Compound 138, (R)-2-(7-(5-isopropyl-1,2,4-oxadiazol-3-yl)dibenzo[b,d]furan-2-sulfonamido)-3-methylbutanoic acid]	2.8 nM
Cc1nc(-c2ccc(C(F)(F)F)cc2)sc1-c1ccc2c(c1)oc1ccc(S(=O)(=O)N[C@@H](C(=O)O)C(C)C)cc12 [Compound 177, (R)-3-methyl-2-(7-(4-methyl-2-(4-(trifluoromethyl)phenyl)thiazol-5-yl)dibenzo[b,d]furan-2-sulfonamido)butanoic acid]	740 nM
CC(C)[C@H](NS(=O)(=O)c1ccc2c(c1)oc1cc(-c3ccc(Cl)o3)ccc12)C(=O)O [Compound 80, (S)-2-(7-(5-chlorofuran-2-yl)dibenzo[b,d]furan-3-sulfonamido)-3-methylbutanoic acid]	< 1.5 nM
Cc1ccc(-c2ccc3c(c2)oc2cc(S(=O)(=O)N[C@H](C(=O)O)C(C)C)ccc23)o1 [Compound 135, (S)-3-methyl-2-(7-(5-methylfuran-2-yl)dibenzo[b,d]furan-3-sulfonamido)butanoic acid]	< 1.5 nM
CCNC(=N)c1ccc2oc3cc(S(=O)(=O)N[C@H](C(=O)O)C(C)C)ccc3c2c1 [Compound 128, (S)-2-(8-(N-ethylcarbamimidoyl)dibenzo[b,d]furan-3-sulfonamido)-3-methylbutanoic acid]	73 nM
CC(C)[C@H](NS(=O)(=O)c1ccc2c(c1)oc1ccc(C(=N)Nc3ccccc3)cc12)C(=O)O [Compound 87, (S)-3-methyl-2-(8-(N-phenylcarbamimidoyl)dibenzo[b,d]furan-3-sulfonamido)butanoic acid]	19 nM
Cc1ccc2nc(-c3ccc4c(c3)oc3ccc(S(=O)(=O)N[C@@H](C(=O)O)C(C)C)cc34)sc2c1 [Compound 298, (R)-3-methyl-2-(7-(6-methylbenzo[d]thiazol-2-yl)dibenzo[b,d]furan-2-sulfonamido)butanoic acid]	7.4 nM
CC(C)[C@@H](NS(=O)(=O)c1ccc2oc3cc(-c4noc(C5CCCC5)n4)ccc3c2c1)C(=O)O [Compound 190, (R)-2-(7-(5-cyclopentyl-1,2,4-oxadiazol-3-yl)dibenzo[b,d]furan-2-sulfonamido)-3-methylbutanoic acid]	2.2 nM
Cc1csc(-c2ccc3oc4cc(S(=O)(=O)N[C@H](C(=O)O)C(C)C)ccc4c3c2)c1 [Compound 33, (S)-3-methyl-2-(8-(4-methylthiophen-2-yl)dibenzo[b,d]furan-3-sulfonamido)butanoic acid]	< 1.5 nM
CC(C)Cc1ncc(-c2ccc3c(c2)oc2cc(S(=O)(=O)N[C@H](C(=O)O)C(C)C)ccc23)s1 [Compound 249, (S)-2-(7-(2-isobutylthiazol-5-yl)dibenzo[b,d]furan-3-sulfonamido)-3-methylbutanoic acid]	7.8 nM
CC(C)[C@H](NS(=O)(=O)c1ccc2c(c1)oc1ccc(-c3ccc(Cl)s3)cc12)C(=O)O [Compound 74, (S)-2-(8-(5-chlorothiophen-2-yl)dibenzo[b,d]furan-3-sulfonamido)-3-methylbutanoic acid]	< 1.5 nM
Cc1cc(-c2ccc3oc4cc(S(=O)(=O)N[C@H](C(=O)O)C(C)C)ccc4c3c2)c(C)s1 [Compound 89, (S)-2-(8-(2,5-dimethylthiophen-3-yl)dibenzo[b,d]furan-3-sulfonamido)-3-methylbutanoic acid]	2.5 nM
CC(C)[C@@H](NS(=O)(=O)c1ccc2oc3cc(-c4cn[nH]c4)ccc3c2c1)C(=O)O [Compound 103, (R)-2-(7-(1H-pyrazol-4-yl)dibenzo[b,d]furan-2-sulfonamido)-3-methylbutanoic acid]	16 nM
CC(C)[C@H](NS(=O)(=O)c1ccc2c(c1)sc1ccc(-c3ccc(-c4ccc(Cl)nc4)nc3)cc12)C(=O)O [Compound 61, (S)-2-(8-(6′-chloro-2,3′-bipyridin-5-yl)dibenzo[b,d]thiophene-3-sulfonamido)-3-methylbutanoic acid]	276 nM
CC(C)[C@H](NS(=O)(=O)c1ccc2c(c1)oc1ccc(-c3ccc(C(F)(F)F)s3)cc12)C(=O)O [Compound 131, (S)-3-methyl-2-(8-(5-(trifluoromethyl)thiophen-2-yl)dibenzo[b,d]furan-3-sulfonamido)butanoic acid]	< 1.5 nM
